{"source": "PubChem BioAssay AID504779", "about": "(National Center for Advancing Translational Sciences (NCATS), 2011)", "test_system": "Caco-2 bidirectional permeability, LC-MS/MS efflux ratio", "test": "Enhancers of SMN2 Splice Variant Expression: Efflux Ratio Profiling", "details": "active compounds read low", "source_text": "Spinal muscular atrophy (SMA) is caused by insufficient levels of the survival motor neuron protein SMN. The SMN locus on chromosome 5q13 contains two inverted copies of SMN called SMN1 and SMN2 which are 99% identical at the amino acid level. SMN1 is a fully functional protein and SMN2 skips exon 7 90% of the time. Skipping of exon 7 produces non-functional protein product. 10% of the SMN2 protein includes exon 7 and is fully functional. In the SMA disease state, mutations in the SMN1 locus are the cause of the disease state. Because only 10% of SMN2 is of the fully functional form, it is not sufficient to overcome the deficiency produced by the loss of the SMN1 product. A therapy that either increase the amount of SMN2 product made or to increase the inclusion of exon 7 has been proposed for the treatment of SMA. After screening and medicinal chemistry efforts a probe was identified and is further characterized in this in vitro ADME assay. This bioassays provides profiling data on Caco-2 cell permeability of leads compounds developed for the HPGD project. […]\nPrepare 1M HEPES: add 23.83g HEPES to 100ml of 0.85% NaCl Prepare HBSS+ buffer: add 12.8ml of 1M HEPES in 0.85% NaCl to 500ml HBSS buffer. […] The T0, LY and T90, LY plates are read by FlexStation 3 at excitation of 485 nm and emission of 535 nm to determine LY permeability. […]", "data": [{"smiles": "O=C(O)C1CCN(c2nc(-c3ccc(Br)cc3)cs2)CC1", "values": [{"measurement": "efflux ratio", "result": 0.4}]}]}
